Measurements published in PubChem BioAssay (NCI).
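Test compounds were applied to cells in 96-well plates for 48 hours at 5 doses. Here, GI50 denotes the concentration required for 50% inhibition of growth. TGI denotes the concentration required for complete inhibition of growth.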

Assays:
Assay in all cases: DTP human tumour cell line panel, 48 h
MALME-3M melanoma = test system: MALME-3M melanoma
RPMI-8226 leukemia = test system: RPMI-8226 leukemia
SW-620 colon = test system: SW-620 colon
TK-10 renal = test system: TK-10 renal
SN12C renal = test system: SN12C renal
SK-MEL-28 melanoma = test system: SK-MEL-28 melanoma
HOP-62 NSCLC = test system: HOP-62 NSCLC
HOP-18 NSCLC = test system: HOP-18 NSCLC
M19-MEL melanoma = test system: M19-MEL melanoma
UO-31 renal = test system: UO-31 renal

Row | Structure (SMILES) | TGI (MALME-3M melanoma) | TGI (RPMI-8226 leukemia) | TGI (SW-620 colon) | TGI (TK-10 renal) | TGI (SN12C renal) | TGI (SK-MEL-28 melanoma) | TGI (HOP-62 NSCLC) | TGI (HOP-18 NSCLC) | TGI (M19-MEL melanoma) | TGI (UO-31 renal) | GI50 (MALME-3M melanoma) | GI50 (RPMI-8226 leukemia) | GI50 (SW-620 colon) | GI50 (TK-10 renal) | GI50 (SN12C renal) | GI50 (SK-MEL-28 melanoma) | GI50 (HOP-62 NSCLC) | GI50 (HOP-18 NSCLC) | GI50 (M19-MEL melanoma) | GI50 (UO-31 renal)
1 | CSc1cnc2ccccc2c1Sc1c[nH]c2ccccc2c1=O | 37.6 µM | 64.4 µM | > 32.3 µM | 91.4 µM | 76.3 µM | 43.5 µM | 43.6 µM | 67.8 µM | 34.6 µM | 45.1 µM |  |  |  |  |  |  |  |  |  | 
2 | CCC[CH2][Sn]([CH2]CCC)([S]C#N)[S]C#N | 2.27 µM | 1.34 µM | 1.54 µM | 2.4 µM | 2.52 µM | 2.15 µM | 3.58 µM | 2.44 µM | 5.04 µM | 2.98 µM | 0.753 µM | 0.229 µM | 0.378 µM | 1.11 µM | 1.18 µM | 0.753 µM | 1.98 µM | 1.21 µM | 0.909 µM | 1.61 µM
3 | COc1ccc2oc3c(OC)c(OC)c(OC)cc3c(=O)c2c1 | > 100 µM | > 100 µM | > 100 µM | > 100 µM | > 100 µM | > 100 µM | > 100 µM | > 100 µM | > 100 µM | > 100 µM |  |  |  |  |  |  |  |  |  | 
4 | Cc1ccc(NC(=O)C(=O)CC(=O)c2c(C)n([O-])c3ccccc3[n+]2=O)cc1C | > 100 µM | > 100 µM | > 100 µM | > 100 µM | > 100 µM | > 100 µM | > 100 µM | > 100 µM | > 100 µM | > 100 µM |  |  |  |  |  |  |  |  |  | 
5 | CS(=O)(=O)OCCCNCCCOS(C)(=O)=O | 4890 µM | 6780 µM | 6720 µM | 6930 µM | 3830 µM | 7560 µM | 6030 µM | 2560 µM | 5560 µM | 6430 µM |  |  |  |  |  |  |  |  |  | 
6 | COc1ccc(C)cc(=O)c1O | > 100 µM | > 100 µM | > 100 µM | > 100 µM | > 100 µM | > 100 µM | > 100 µM | > 100 µM | > 100 µM | > 100 µM |  |  |  |  |  |  |  |  |  | 
